Experimental data as given in PMC4445146 (European journal of medicinal chemistry, 2014).

Key:
Mcl-1/Bim = Mcl-1/Bim (Homo sapiens, UniProt Q07820); assay: ELISA, disruption of Mcl-1/Bim binding; settings: for IC50: read-out: Mcl-1/Bim IC50, ELISA, average ± SEM, n ≥ 3; for fold more potent than 1 against Mcl-1/Bim: ELISA IC50 relative to (±)-marinopyrrole A (1)
Bcl-xL/Bim = Bcl-xL/Bim (Homo sapiens, UniProt Q07817); assay: ELISA, disruption of Bcl-xL/Bim binding; settings: for IC50: read-out: Bcl-xL/Bim IC50, ELISA, average ± SEM, n ≥ 3; for fold more potent than 1 against Bcl-xL/Bim: ELISA IC50 relative to (±)-marinopyrrole A (1); for selectivity for Bcl-xL over Mcl-1: ratio of ELISA IC50 values
[1] = system: MDA-MB-468 breast cancer cells; assay type: cell-based, human; settings: MDA-MB-468 cells; for decrease of Mcl-1 levels and caspase 3 cleavage: concentrations as high as 10 μM (data not shown); for decrease of Mcl-1 levels and induction of apoptosis (caspase 3 activation): 3 μM, western blot

Chain of Mcl-1/Bim (Q07820 whole entry): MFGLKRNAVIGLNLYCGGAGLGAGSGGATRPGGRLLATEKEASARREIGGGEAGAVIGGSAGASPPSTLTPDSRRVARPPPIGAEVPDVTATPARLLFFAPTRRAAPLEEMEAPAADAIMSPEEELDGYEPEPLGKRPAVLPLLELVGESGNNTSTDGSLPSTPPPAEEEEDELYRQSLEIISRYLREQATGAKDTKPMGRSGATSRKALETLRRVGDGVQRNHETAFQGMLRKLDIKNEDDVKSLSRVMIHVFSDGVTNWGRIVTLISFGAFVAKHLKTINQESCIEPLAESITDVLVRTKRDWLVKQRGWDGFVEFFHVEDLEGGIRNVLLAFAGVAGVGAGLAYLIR
Chain of Bcl-xL/Bim (Q07817 whole entry): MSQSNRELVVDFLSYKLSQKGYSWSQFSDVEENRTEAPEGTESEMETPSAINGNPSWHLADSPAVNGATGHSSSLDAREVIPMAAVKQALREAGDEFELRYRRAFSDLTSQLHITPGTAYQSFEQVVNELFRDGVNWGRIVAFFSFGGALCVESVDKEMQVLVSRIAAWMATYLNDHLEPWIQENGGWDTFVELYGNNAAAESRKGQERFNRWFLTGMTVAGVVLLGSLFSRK

Molecule: Cc1cc(O)c(C(=O)c2[nH]c(Cl)c(Cl)c2-n2c(C(=O)c3cc(Cl)c(C)cc3O)cc(Cl)c2Cl)cc1Cl [compound 24, (4,4′,5,5′-Tetrachloro-1′H-1,3′-bipyrrole-2,2′-diyl)bis((5-chloro-2-hydroxy-4-methylphenyl)methanone)]
- IC50 (Mcl-1/Bim): 2.6 ± 0.6 µM
- IC50 (Bcl-xL/Bim): 2.5 ± 0.4 µM

Molecule: C#Cc1ccc(C(=O)c2[nH]c(Cl)c(Cl)c2-n2c(C(=O)c3ccc(C#C)cc3O)cc(Cl)c2Cl)c(O)c1 [compound 25, (4,4′,5,5′-Tetrachloro-1′H-1,3′-bipyrrole-2,2′-diyl)bis((4-ethynyl-2-hydroxyphenyl)methanone)]
- IC50 (Mcl-1/Bim): 3.9 ± 0.2 µM
- IC50 (Bcl-xL/Bim): 5.6 ± 0.5 µM

Molecule: CCc1ccc(C(=O)c2[nH]c(Cl)c(Cl)c2-n2c(C(=O)c3ccc(CC)cc3O)cc(Cl)c2Cl)c(O)c1 [compound 27, (4,4′,5,5′-Tetrachloro-1′H-1,3′-bipyrrole-2,2′-diyl)bis((4-ethyl-2-hydroxyphenyl)methanone)]
- IC50 (Mcl-1/Bim): 2.1 ± 0.5 µM
- IC50 (Bcl-xL/Bim): 3.9 ± 1.3 µM

Molecule: O=C(c1ccc(OS(=O)(=O)C(F)(F)F)cc1O)c1[nH]c(Cl)c(Cl)c1-n1c(C(=O)c2ccccc2O)cc(Cl)c1Cl [compound 28]
- fold more potent than 1 against Mcl-1/Bim (Mcl-1/Bim): nine
- fold more potent than 1 against Bcl-xL/Bim (Bcl-xL/Bim): eight

Molecule: O=C(c1ccc(O)cc1O)c1[nH]c(Cl)c(Cl)c1-n1c(C(=O)c2ccc(O)cc2O)cc(Cl)c1Cl [compound 29]
- decrease of Mcl-1 levels and caspase 3 cleavage [1]: inactive at decreasing Mcl-1 levels and at inducing caspase 3 cleavage

Molecule: O=C(c1cc(Cl)c(O)cc1O)c1[nH]c(Cl)c(Cl)c1-n1c(C(=O)c2cc(Cl)c(O)cc2O)cc(Cl)c1Cl [compound 30]
- decrease of Mcl-1 levels and caspase 3 cleavage [1]: inactive at decreasing Mcl-1 levels and at inducing caspase 3 cleavage

Molecule: CCOC(=O)CSc1ccc(C(=O)c2[nH]c(Cl)c(Cl)c2-n2c(C(=O)c3ccc(SCC(=O)OCC)cc3O)cc(Cl)c2Cl)c(O)c1 [compound 31]
- decrease of Mcl-1 levels and induction of apoptosis (caspase 3 activation) [1]: little activity in intact cells

Molecule: O=C(c1ccc(SCc2ccccc2)cc1O)c1[nH]c(Cl)c(Cl)c1-n1c(C(=O)c2ccc(SCc3ccccc3)cc2O)cc(Cl)c1Cl [compound 32]
- decrease of Mcl-1 levels and induction of apoptosis (caspase 3 activation) [1]: little activity in intact cells

Molecule: COc1ccc(CSc2ccc(C(=O)c3[nH]c(Cl)c(Cl)c3-n3c(C(=O)c4ccc(SCc5ccc(OC)cc5)cc4O)cc(Cl)c3Cl)c(O)c2)cc1 [compound 33]
- decrease of Mcl-1 levels and induction of apoptosis (caspase 3 activation) [1]: little activity in intact cells

Molecule: CCOC(=O)Cn1cc(-c2cc(O)c(C(=O)c3[nH]c(Cl)c(Cl)c3-n3c(C(=O)c4cc(Cl)c(-c5cn(CC(=O)OCC)nn5)cc4O)cc(Cl)c3Cl)cc2Cl)nn1 [compound 36, Diethyl 2,2′-(4,4′-((4,4′,5,5′-tetrachloro-1′H-1,3′-bipyrrole-2,2′-dicarbonyl)bis(2-chloro-5-hydroxy-4,1-phenylene))bis(1H-1,2,3-triazole-4,1-diyl))diacetate]
- IC50 (Mcl-1/Bim): 7.8 ± 1.5 µM

Molecule: CC(C)(C)OC(=O)Cn1cc(-c2cc(O)c(C(=O)c3[nH]c(Cl)c(Cl)c3-n3c(C(=O)c4cc(Cl)c(-c5cn(CC(=O)OC(C)(C)C)nn5)cc4O)cc(Cl)c3Cl)cc2Cl)nn1 [compound 37, Di-tert-butyl 2,2′-(4,4′-((4,4′,5,5′-tetrachloro-1′H-1,3′-bipyrrole-2,2′-dicarbonyl)bis(2-chloro-5-hydroxy-4,1-phenylene))bis(1H-1,2,3-triazole-4,1-diyl))diacetate]
- decrease of Mcl-1 levels and induction of apoptosis (caspase 3 activation) [1]: little activity in intact cells

Molecule: O=C(O)Cn1cc(-c2cc(O)c(C(=O)c3[nH]c(Cl)c(Cl)c3-n3c(C(=O)c4cc(Cl)c(-c5cn(CC(=O)O)nn5)cc4O)cc(Cl)c3Cl)cc2Cl)nn1 [compound 38, 2,2′-(4,4′-((4,4′,5,5′-Tetrachloro-1′H-1,3′-bipyrrole-2,2′-dicarbonyl)bis(2-chloro-5-hydroxy-4,1-phenylene))bis(1H-1,2,3-triazole-4,1-diyl))diacetic acid]
- IC50 (Mcl-1/Bim): 5.2 ± 0.8 µM
- decrease of Mcl-1 levels and caspase 3 cleavage [1]: inactive at decreasing Mcl-1 levels and at inducing caspase 3 cleavage

Molecule: O=C(c1ccc(-c2cn(-c3ccccc3)nn2)cc1O)c1[nH]c(Cl)c(Cl)c1-n1c(C(=O)c2ccc(-c3cn(-c4ccccc4)nn3)cc2O)cc(Cl)c1Cl [compound 40]
- decrease of Mcl-1 levels and induction of apoptosis (caspase 3 activation) [1]: little activity in intact cells
- selectivity for Bcl-xL over Mcl-1 (Bcl-xL/Bim): 2 fold

Molecule: CCOC(=O)Cn1cc(-c2ccc(C(=O)c3[nH]c(Cl)c(Cl)c3-n3c(C(=O)c4ccc(-c5cn(CC(=O)OCC)nn5)cc4O)cc(Cl)c3Cl)c(O)c2)nn1 [compound 43, Diethyl 2,2′-(4,4′-((4,4′,5,5′-tetrachloro-1′H-1,3′-bipyrrole-2,2′-dicarbonyl)bis(3-hydroxy-4,1-phenylene))bis(1H-1,2,3-triazole-4,1-diyl))diacetate]
- IC50 (Mcl-1/Bim): 18.4 ± 0.3 µM

Molecule: O=C(O)Cn1cc(-c2ccc(C(=O)c3[nH]c(Cl)c(Cl)c3-n3c(C(=O)c4ccc(-c5cn(CC(=O)O)nn5)cc4O)cc(Cl)c3Cl)c(O)c2)nn1 [compound 45, 2,2′-(4,4′-((4,4′,5,5′-Tetrachloro-1′H-1,3′-bipyrrole-2,2′-dicarbonyl)bis(3-hydroxy-4,1-phenylene))bis(1H-1,2,3-triazole-4,1-diyl))diacetic acid]
- IC50 (Mcl-1/Bim): 16.5 ± 1.9 µM

Molecule: O=C(c1ccccc1O)c1[nH]c(Cl)c(Cl)c1-n1c(C(=O)c2cc(Cl)ccc2O)cc(Cl)c1Cl [compound 48]
- decrease of Mcl-1 levels and induction of apoptosis (caspase 3 activation) [1]: not active in intact cells

Molecule: O=C(c1ccccc1O)c1[nH]c(Cl)c(Cl)c1-n1c(C(=O)c2c(O)cccc2F)cc(Cl)c1Cl [compound 52]
- decrease of Mcl-1 levels and induction of apoptosis (caspase 3 activation) [1]: not active in intact cells

Molecule: Cn1c(Cl)c(Cl)c(-n2c(C(=O)c3ccccc3O)cc(Cl)c2Cl)c1C(=O)c1ccccc1O [compound 54, (4,4′,5,5′-tetrachloro-1′-methyl-1′H-[1,3′-bipyrrole]-2,2′-diyl)bis((2-hydroxyphenyl)methanone)]
- selectivity for Bcl-xL over Mcl-1 (Bcl-xL/Bim): selectivity for Bcl-xL/Bim over Mcl-/Bim

Molecule: (4,4′,5,5′-Tetrachloro-1′H-1,3′-bipyrrole-2,2′-diyl)bis((2-hydroxy-4-(1-octyl-1H-1,2,3-triazol-5-yl)phenyl)methanone) [compound 42]
- fold more potent than 1 against Mcl-1/Bim (Mcl-1/Bim): 15 fold
- IC50 (Mcl-1/Bim): 0.6 ± 0.3 µM
- decrease of Mcl-1 levels and induction of apoptosis (caspase 3 activation) [1]: little activity in intact cells
- fold more potent than 1 against Bcl-xL/Bim (Bcl-xL/Bim): 33 fold
- IC50 (Bcl-xL/Bim): 0.5 ± 0.1 µM
